The numbers were not newly measured in patent publication US20230158012A1, “ORAL LIQUID FORMULATIONS OF LENVATINIB” (SHILPA MEDICARE LIMITED, priority 2020, published 2023), which cites them from elsewhere.

The conditions of the series: 5% w/w aqueous solution or suspension.
In the case of `O=C1O[C@H](CO)[C@@H](O)[C@H](O)[C@H]1O` [Gluconolactone], the pH value is 2.40. On to `O=P([O-])([O-])O.[K+].[K+]` [dipotassium hydrogenphosphate], for which the pH value was 9.11. `O=P([O-])([O-])O.[Na+].[Na+]` [disodium hydrogenphosphate]: the pH value is listed as 9.26.

Turning to `NCC(=O)O` [glycine], the pH value is listed as 6.17. In the case of `[O]=[Mg]` [magnesium oxide], the pH value is reported as 10.63. As for `CC(=O)[O-].[Na+]` [sodium acetate], the pH value is given as 8.46. Regarding `O=C([O-])[O-].[Na+].[Na+]` [sodium carbonate], the pH value is given as 11.45. `O=C([O-])CC(O)(CC(=O)[O-])C(=O)[O-].[Na+].[Na+].[Na+]` [sodium citrate]: the pH value is given as 8.22. On to `O=C([O-])O.[Na+]` [sodium hydrogencarbonate], for which the pH value is listed as 8.15. In the case of `[Na+].[OH-]` [sodium hydroxide], the pH value was 13.56.
